Measurements taken from paper PMC10493395, “Optimization of a small molecule inhibitor of secondary nucleation in α-synuclein aggregation” (Frontiers in Molecular Biosciences, 2023).

Target: T1, α-synuclein (Homo sapiens, UniProt P37840)
T1 construct: gene SNCA; preformed fibrils of recombinant wild-type α-synuclein
Assay: fibril ultracentrifugation depletion with LC-MS of unbound compound in the supernatant, dose-response fit (second estimate […] by varying fibril concentration)
Type: binding

Kd: 6 ± 1 µM
SMILES: O=C1NN(c2ccccc2)C(=O)C1=Cc1coc2ccc(Cl)cc2c1=O [69.2, compound 69.2]
